Test results published in patent US20250042918A1, “COMPOUNDS” (Fundación Del Sector Públlco Estatal Centro Nacional De …, priority 2021, published 2025).

Legend:
Type in all cases: cell-based
BT-474 = experiment: In vitro potency against breast cancer cell lines (CellTiter Glo); conditions: Homo sapiens, BT-474, 72 h; read-out: absolute IC50 BT-474
Procedure: (§1) To prepare the complete medium FBS and appropriate additives were added according to the information sheet provided by the vendor and mixed gently. The cell name and complete medium and passage number marked on the flask were checked, and the culture medium removed and discarded using a vacuum pump. […] 3.0 ml of Trypsin-EDTA solution was added to the flask and the cells observed under an inverted microscope until cell layer is dispersed. 8.0 ml of complete growth medium was added and the cells aspirated by gently pipetting. The cell suspension was transferred to a centrifuge tube and centrifuged at 800-1000 rpm for 3-5 minutes. The supernatant was discarded using a vacuum pump, and an appropriate volume of complete medium added. The cell pellet was suspended by gently pipetting, and the cell numbers counted with Vi-cell XR and the cells adjusted to appropriate density. 100 μL of cell suspension to 96-well opaque-walled clear bottom plates was added according to the planned plate layout and the plates placed in the CO2 incubator overnight.
(§2) c. […] Meanwhile the day 0 plate was measured by Cell TiterGlo as listed below.
(§3) d. Cells were incubated with the compounds for 72 h at 5% CO2, 37° C.
(§4) The CellTiter-Glo buffer was thawed and equilibrated to room temperature prior to use. The lyophilized CellTiter-Glo substrate was equilibrated to room temperature prior to use. The appropriate volume of CellTiter-Glo buffer was transferred into the amber bottle containing CellTiter-Glo substrate to reconstitute the lyophilized enzyme/substrate mixture, thereby forming the CellTiter-Glo reagent. Mixing was carried out by gently vortexing, swirling or by inverting the contents to obtain a homogeneous solution, the CellTiter-Glo substrate going into solution easily in less than one minute.
(§5) The plate and its contents were equilibrated to room temperature for approximately 30 minutes, after which 100 μL of CellTiter-Glo reagent was added to the assay plate by Multidrop Combi instrument and the contents mixed for 10 minutes on an orbital shaker to induce cell lysis. The plate was allowed to incubate at room temperature for 10 minutes to stabilize luminescent signal and the clear bottom pasted with white back seal and the luminescence recorded with Enspire with the settings: Luminescence, measurement time 0.1 ms.

HCC1143 = experiment: as above; conditions: Homo sapiens, HCC1143, 72 h; read-out: absolute IC50 HCC1143
Procedure: as §1, §2, §3, §4, §5

HCC1954 = experiment: as above; conditions: Homo sapiens, HCC1954, 72 h; read-out: absolute IC50 HCC1954
Procedure: as §1, §2, §3, §4, §5

HCC38 = experiment: as above; conditions: Homo sapiens, HCC38, 72 h; read-out: absolute IC50 HCC38
Procedure: as §1, §2, §3, §4, §5

MDA-MB-361 = experiment: as above; conditions: Homo sapiens, MDA-MB-361, 72 h; read-out: absolute IC50 MDA-MB-361
Procedure: as §1, §2, §3, §4, §5

T-47D = experiment: as above; conditions: Homo sapiens, T47D, 72 h; read-out: absolute IC50 T-47D
Procedure: as §1, §2, §3, §4, §5

HL-60 = experiment: In vitro potency against leukemia cell lines (CellTiter Glo); conditions: Homo sapiens, 72 hours, read-out: absolute IC50 HL-60
Procedure: as §1, §2, §3, §5
(§6) In all cases, the incubation time was 72 hours and the cell lines were grown as a suspension. The seeding density was […] in a 96 well plate.

Jeko-1 = experiment: as above; conditions: Homo sapiens, 72 hours, read-out: absolute IC50 JeKo-1
Procedure: as §1, §2, §3, §5, §6

KG-1 = experiment: as above; conditions: Homo sapiens, 72 hours, read-out: absolute IC50 KG-1
Procedure: as §1, §2, §3, §5, §6

Kasumi-3 = experiment: as above; conditions: 72 hours, read-out: absolute IC50 Kasumi-3
Procedure: as §1, §2, §3, §5, §6

MV-4-11 = experiment: as above; conditions: Homo sapiens, MV4-11; 72 hours; read-out: absolute IC50 MV-4-11
Procedure: as §1, §2, §3, §5, §6

Molm-13 = experiment: as above; conditions: Homo sapiens, 72 hours, read-out: absolute IC50 Molm-13
Procedure: as §1, §2, §3, §5, §6

OCI-M1 = experiment: as above; conditions: 72 hours, read-out: absolute IC50 OCI-M1
Procedure: as §1, §2, §3, §5, §6

IC50 (BT-474): 0.114 µM
IC50 (HCC1143): 0.145 µM
IC50 (HCC1954): 0.0145 µM
IC50 (HCC38): 0.0664 µM
IC50 (MDA-MB-361): 0.0301 µM
IC50 (T-47D): 0.0565 µM
IC50 (HL-60): 0.43 µM
IC50 (Jeko-1): 0.0678 µM
IC50 (KG-1): 0.09 µM
IC50 (Kasumi-3): 0.105 µM
IC50 (MV-4-11): 0.0365 µM
IC50 (Molm-13): 0.0443 µM
IC50 (OCI-M1): 0.125 µM
Structure (SMILES): Cn1c(=O)n(-c2ccc(C(C)(C)C#N)cc2)c2c3cc(-c4cnc5ccccc5c4)ccc3ncc21 [Dactolisib, dactolisib]
